Where two headings read alike, the source gives them in different places.
Legend:
[1] = test system: KB (RFC/PCFT/FRα) cells; assay: Growth inhibition, KB nasopharyngeal carcinoma cells; type: cell-based, human; conditions: folate-free RPMI 1640, 2 nM leucovorin, mean (SE)
Protocol: The CHO cells were cultured in α-minimal essential medium (MEM) supplemented with 10% bovine calf serum (Fisher Scientific), penicillin (1000 U/mL)/streptomycin (1000 μg/mL), and 2 mM L-glutamine at 37 °C with 5% CO2. All of the R2 transfected cells (PC43-10, RT16, R2/PCFT4) were cultured in complete α-MEM media plus 1 mg/mL G418. Prior to the cytotoxicity assays (see below), RT16 and D4 cells were cultured for 3 days in complete folate-free RPMI 1640 (without added folate), and R2/PCFT4 and R2 cells were cultured in complete folate-free RPMI 1640 supplemented with dialyzed fetal bovine serum (Fisher Scientific) and 25 nM leucovorin plus 1 mg/mL G418. KB cells were routinely cultured in folate-free RPMI 1640 medium, supplemented with 10% fetal bovine serum (Fisher Scientific), penicillin-streptomycin solution, and 2 mM L-glutamine at 37 °C with 5% CO2.
For growth inhibition studies, cells (CHO, KB) were plated in 96-well dishes (∼2500–5000 cells/well, total volume of 200 μL medium) over a range of antifolate concentrations.[69],[77] The medium was folate-free RPMI 1640 with 10% dialyzed serum and antibiotics supplemented with 25 nM leucovorin for experiments with R2, PC43-10, and R2/PCFT4 cells. For experiments with RT16, D4, and KB cells, cells were cultured in folate-free RPMI medium with 10% dialyzed fetal bovine serum and antibiotics; the medium was supplemented with 2 nM leucovorin. […] Incubations were routinely for up to 96 h. Viable cells (reflecting cell viability) were assayed with Cell Titer Blue reagent (Promega, Madison, WI), with fluorescence measured (590 nm emission, 560 nm excitation) with a fluorescence plate reader.

[2] = target: T1, human ATIC (Homo sapiens, UniProt P31939); assay: AICARFTase (ATIC) inhibition assay, Ki; type: biochemical; conditions: purified His-ATIC, AICARFTase activity, 50 μM 10-formyl THF, 25 °C; mean (SD), at least 3 replicates
T1 construct: N-terminal His6-tagged full-length human ATIC; made in house; host or cells: E. coli Rosetta (DE3)pLysS
T1 sequence (P31939 whole entry): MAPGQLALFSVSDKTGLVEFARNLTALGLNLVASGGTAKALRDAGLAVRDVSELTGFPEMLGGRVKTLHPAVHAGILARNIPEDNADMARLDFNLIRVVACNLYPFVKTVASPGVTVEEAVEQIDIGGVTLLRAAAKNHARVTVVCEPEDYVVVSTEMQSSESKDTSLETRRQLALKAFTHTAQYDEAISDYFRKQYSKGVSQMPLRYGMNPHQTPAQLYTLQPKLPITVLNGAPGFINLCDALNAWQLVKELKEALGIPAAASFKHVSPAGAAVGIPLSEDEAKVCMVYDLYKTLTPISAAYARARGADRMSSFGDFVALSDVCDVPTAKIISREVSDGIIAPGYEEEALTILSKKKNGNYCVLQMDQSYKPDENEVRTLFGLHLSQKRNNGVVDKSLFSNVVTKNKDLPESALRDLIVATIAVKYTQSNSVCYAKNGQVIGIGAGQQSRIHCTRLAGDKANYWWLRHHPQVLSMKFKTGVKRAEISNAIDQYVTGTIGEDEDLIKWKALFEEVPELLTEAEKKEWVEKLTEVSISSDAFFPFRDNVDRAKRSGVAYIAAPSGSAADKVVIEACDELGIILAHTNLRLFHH
Protocol: The cells were grown at 37 °C in 1 L cultures of LB media containing […] and […] until OD600 reached 0.6. Protein expression was induced by the addition of isopropyl β-D1-thiogalactopyranoside (IPTG, 500 μM).
His-ATIC was purified by Ni-NTA chromatography (Gold Biotechnology).[36] […] His-ATIC was eluted in 1 column volume fractions, 5 times with buffer containing 300 mM imidazole, 25 mM Tris-HCl, pH 7.5, 300 mM NaCl, and 5 mM β-Me. Size exclusion chromatography on a Superdex 200 16/60 (GE Healthcare) column was used for final purification using 20 mM Tris-HCl, pH 7.5, 150 mM NaCl, 50 mM KCl, 5 mM EDTA, and 5 mM dithiothreitol.
MTHFD2 activities were assayed by a reaction with methylene THF and NAD^+. NADH production was measured by fluorescence (excitation 340 nm, emission 480 nm). Reaction conditions included 100 nM MTHFD2, 5 μM methylene THF, and concentrations of small-molecule inhibitor ranging from 0.02 nM to 2000 nM; NAD^+ (2.5 mM) was added to initiate the reaction. The reaction buffer consisted of 50 mM Tris-HCl, pH 7.5, 250 mM NaCl, 5 mM magnesium chloride, 5% glycerol, and 0.5 mM TCEP. […] To assay SHMT1 or SHMT2 (SHMT1/2) enzymes, a coupled reaction with His-MTHFD2 in 200-fold molar excess was used where the production of NADH was monitored by fluorescence with excitation at 360 nm and emission at 470 nm at 25 °C. The reactions contained 5 nM His-SHMT1/2, 50 μM THF, 20 mM serine, 10 μM His-MTHFD2, 2.5 mM NAD^+, and a range of inhibitor concentrations (final concentrations). The reactions were performed in buffer containing 20 mM sodium phosphate, pH 7.5, 100 mM KCl, 0.2 mM EDTA, and 5 mM β-Me. […] To calculate IC50 values for each inhibitor, initial velocities were graphed as a function of inhibitor concentrations and fit with a three-parameter nonlinear regression (GraphPad Prism 8.0). The equation [Ki = IC50/([S]/KM + 1)] was used to convert IC50’s to Ki values.

[3] = test system: R2/PCFT4 (PCFT) CHO cells; assay: Growth inhibition, R2/PCFT4 CHO cells expressing human PCFT; type: cell-based, Chinese hamster; conditions: Cricetulus griseus, 96 h, read-out: IC50 R2/PCFT4 (PCFT)
[4] = test system: D4 (FRβ) CHO cells; assay: Growth inhibition, D4 CHO cells expressing human FRβ; type: cell-based, Chinese hamster; conditions: for IC50: Cricetulus griseus, CHO, 96 h, mean (SE); for difference between D4 (FRβ) and RT16 (FRα) IC50: RT16 versus D4 CHO cells
[5] = test system: HPAC (RFC/PCFT) cells; assay: Proliferation inhibition, HPAC pancreatic adenocarcinoma cells; type: cell-based, human; conditions: for IC50: HPAC cells, folate- and glycine-free RPMI, 25 nM leucovorin, mean (SE)
Text: (§1) The RFC-, PCFT-, and FR-null MTXRIIOua^R2–4 (R2), and RFC- (PC43-10), PCFT- (R2/PCFT4), FRα- (RT16), and FRβ- (D4) expressing CHO sublines were previously described.[62]−[64],[76] HPAC pancreatic cancer cells were generously provided by Dr. Yubin Ge (Karmanos Cancer Institute, Detroit, MI). Human pancreatic normal epithelial (HPNE) cells[67] were a gift from M. Oulette (University of Nebraska Medical Center, Omaha, NE). KB human nasopharyngeal carcinoma cells were purchased from the American Type Culture Collection (Manassas, VA). All human cell lines were validated by STR analysis by Genetica DNA Laboratories (Burlington, NC). Cell lines were tested for Mycoplasma by PCR using a Mycloplasma testing kit (Venor GeM Mycoplasma Detection Kit, Sigma). Frozen stocks were generated from authenticated Mycoplasma-free cultures.

[6] = test system: R2 (MTXRIIOuaR2-4) CHO cells; assay: Growth inhibition, transporter-null R2 CHO cells; type: cell-based, Chinese hamster; conditions: Cricetulus griseus, 96 h, read-out: IC50 R2
[7] = test system: PC43-10 (RFC) CHO cells; assay: Growth inhibition, PC43-10 CHO cells expressing human RFC; type: cell-based, Chinese hamster; conditions: Cricetulus griseus, 96 h, read-out: IC50 PC43-10 (RFC)
[8] = test system: HPNE (RFC) cells; assay: Proliferation inhibition, HPNE normal pancreatic epithelial cells; type: cell-based; conditions: Homo sapiens, folate- and glycine-free RPMI, 25 nM leucovorin
Text: as §1

[9] = test system: RT16 (FRα) CHO cells; assay: Growth inhibition, RT16 CHO cells expressing human FRα; type: cell-based, Chinese hamster; conditions: 96 h, 96 h, mean (SE)
[10] = target: T2, SHMT1 (Homo sapiens, UniProt P34896); assay: SHMT1 inhibition assay coupled with MTHFD2, Ki; type: biochemical; conditions: purified His-SHMT1, 50 μM THF, 25 °C; mean (SD), at least 3 replicates
T2 construct: full-length SHMT1 with an N-terminal His6-tag; made in house; host or cells: E. coli Rosetta (DE3)pLysS
T2 sequence (P34896 1-483): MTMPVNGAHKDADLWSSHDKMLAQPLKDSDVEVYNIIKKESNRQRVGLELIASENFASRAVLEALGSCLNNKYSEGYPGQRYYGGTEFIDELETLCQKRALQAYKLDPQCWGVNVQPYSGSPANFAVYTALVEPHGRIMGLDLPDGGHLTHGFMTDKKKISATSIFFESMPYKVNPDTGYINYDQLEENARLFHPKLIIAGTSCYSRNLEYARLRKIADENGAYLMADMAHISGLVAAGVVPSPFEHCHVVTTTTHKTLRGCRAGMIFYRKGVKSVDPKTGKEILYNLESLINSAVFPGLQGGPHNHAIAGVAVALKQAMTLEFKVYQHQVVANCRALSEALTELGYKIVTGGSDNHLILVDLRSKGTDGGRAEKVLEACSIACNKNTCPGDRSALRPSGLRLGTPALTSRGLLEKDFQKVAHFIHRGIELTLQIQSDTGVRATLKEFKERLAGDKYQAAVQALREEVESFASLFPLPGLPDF
Protocol: Kinetic measurements were recorded in triplicate using a flat, black-bottom, black-walled 96-well plate (Greiner Bio-One, 655900) and a BioTek Synergy Neo2 Plate Reader. […] To assay SHMT1 or SHMT2 (SHMT1/2) enzymes, a coupled reaction with His-MTHFD2 in 200-fold molar excess was used where the production of NADH was monitored by fluorescence with excitation at 360 nm and emission at 470 nm at 25 °C. The reactions contained 5 nM His-SHMT1/2, 50 μM THF, 20 mM serine, 10 μM His-MTHFD2, 2.5 mM NAD^+, and a range of inhibitor concentrations (final concentrations). The reactions were performed in buffer containing 20 mM sodium phosphate, pH 7.5, 100 mM KCl, 0.2 mM EDTA, and 5 mM β-Me. A BioTek Synergy Neo2 Plate Reader was used to record kinetic measurements in triplicate in a UV-transparent 96-well plate (Costar 3635) for GARFTase and AICARFTase assays and a black-well, black-bottom 96-well plate (Corning 3603). To calculate IC50 values for each inhibitor, initial velocities were graphed as a function of inhibitor concentrations and fit with a three-parameter nonlinear regression (GraphPad Prism 8.0). The equation [Ki = IC50/([S]/KM + 1)] was used to convert IC50’s to Ki values.

[11] = CHO cells expressing human PCFT, 25 nM leucovorin, mean (SE)
[12] = CHO cells expressing human FRβ, 2 nM leucovorin, read-out: IC50 D4 (FRβ)
[13] = transporter-null CHO cells, 25 nM leucovorin, mean (SE)
[14] = CHO cells expressing human RFC, 25 nM leucovorin, mean (SE)
[15] = Cricetulus griseus, CHO cells expressing human FRα, 2 nM leucovorin, read-out: IC50 RT16 (FRα)
[16] = CHO cells expressing human FRα, 2 nM leucovorin, read-out: IC50 RT16 (FRα)

SMILES | IC50 ([1]; Homo sapiens, KB) [nM] | Ki [2] [nM] | IC50 [3, 11] [nM] | IC50 [4, 12] [nM] | difference between D4 (FRβ) and RT16 (FRα) IC50 [4] | IC50 [5] [nM] | IC50 ([5]; Homo sapiens, HPAC) [nM] | IC50 [6, 13] [nM] | IC50 [7, 14] [nM] | IC50 [8] [nM] | IC50 [9, 15] [nM] | IC50 [1] [nM] | IC50 [3] [nM] | IC50 [9, 16] [nM] | IC50 ([4]; read-out: IC50 D4 (FRβ), CHO cells expressing human FRβ, 96 h, 2 nM leucovorin) [nM] | IC50 ([6]; CHO) [nM] | IC50 [7] [nM] | IC50 ([9]; Cricetulus griseus, read-out: IC50 RT16 (FRα), CHO cells expressing human FRα, 96 h, 2 nM leucovorin) [nM] | IC50 HPAC (RFC/PCFT) [5] [nM] | Ki [10] [nM]
Nc1nc2ccn(CCCc3ccc(C(=O)N[C@@H](CCC(=O)O)C(=O)O)cc3)c2c(=O)[nH]1 [Compound 2] | 6.73 | 13400 | 191 | 2.37 | 20- to 40 fold | 310 | 310 | > 1000 | 41.9 | > 5000 | 49.9 |  |  |  |  |  |  |  |  | 
Nc1nc2ccn(CCCSc3ccc(C(=O)N[C@@H](CCC(=O)O)C(=O)O)cc3)c2c(=O)[nH]1 [Compound 7, (4-((3-(2-Amino-4-oxo-3,4-dihydro-5H-pyrrolo[3,2-d]pyrimidin-5-yl)propyl)thio)benzoyl)-L-glutamic Acid] | 31.5 | 4810 |  |  |  |  | > 5000 | > 1000 | > 1000 | > 5000 | < 3 | 31.5 | > 1000 | 3.13 |  |  |  |  |  | 
Nc1nc2ccn(CCCCCc3ccc(C(=O)N[C@@H](CCC(=O)O)C(=O)O)c(F)c3)c2c(=O)[nH]1 [Compound 11, (4-(5-(2-Amino-4-oxo-3,4-dihydro-5H-pyrrolo[3,2-d]pyrimidin-5-yl)pentyl)-2-fluorobenzoyl)-L-glutamic Acid] | 6.25 |  |  |  |  |  | 1230 |  |  | > 5000 |  |  | > 1000 |  | 6.95 | > 1000 | > 1000 | 26.8 |  | 
Nc1nc2ccn(CCCCc3cc(F)c(C(=O)N[C@@H](CCC(=O)O)C(=O)O)c(F)c3)c2c(=O)[nH]1 [Compound 12, (4-(4-(2-Amino-4-oxo-3,4-dihydro-5H-pyrrolo[3,2-d]pyrimidin-5-yl)butyl)-2,6-difluorobenzoyl)-L-glutamic Acid] | 9.26 |  | > 1000 | 7.5 |  |  | > 5000 | > 1000 | > 1000 | > 5000 | 2.55 |  |  |  |  |  |  |  |  | 
Nc1nc2ccn(CCCc3ccc(C(=O)N[C@@H](CCC(=O)O)C(=O)O)c(F)c3)c2c(=O)[nH]1 [Compound 13, (4-(3-(2-Amino-4-oxo-3,4-dihydro-5H-pyrrolo[3,2-d]pyrimidin-5-yl)propyl)-2-fluorobenzoyl)-L-glutamic Acid] | 8.34 |  | 98 | 0.63 | 20- to 40 fold |  | 166 | > 1000 | 233 | > 5000 | 16.3 |  |  |  |  |  |  |  | 2600 to 4600 | 
Nc1nc2ccn(CCCCc3ccc(C(=O)N[C@@H](CCC(=O)O)C(=O)O)s3)c2c(=O)[nH]1 [Compound 16] | 2.58 |  | > 1000 |  |  |  | 3210 | > 1000 | > 1000 | > 5000 | < 3 |  |  | 2.82 |  |  |  |  |  | 1040
